US20150038707A1, “PROCESS FOR MAKING CGRP RECEPTOR ANTAGONISTS” (Merck Sharp & Dohme Corp., priority 2012, published 2015)

Legend:
[1] = system: An. Vestitipennis; details: stated as identical to night one of compound 1405; cited from earlier work
[2] = system: Ae. aegypti Isla mujeres strain (metabolically pyrethroid resistant); assay: Toxicity assay on treated netting (Example 7), Isla mujeres strain; type: in vivo
Experimental: (§1) Several compounds were tested to determine their toxic effect on Ae. aegypti mosquitoes. Three mosquito strains were tested—Houston which is pyrethroid susceptible, That which is pyrethroid tolerant and Isla Mujer which is metabolically pyrethroid resistant.
(§2) The toxicity assay involved a single chamber to which treated netting was added. Twenty (20) mosquitoes were transferred to the chamber. After 1 hour, the number of knocked down mosquitoes was recorded and all mosquitoes were transferred to holding cartoons. The mosquitoes were given a 10% sucrose-soaked cotton ball and returned to the insectary. Mortaility was measured after 24 hours. A control assay using acetone-treated netting was used. Six replicates were performed at each treatment concentration.

[3] = system: Ae. aegypti Thai strain (pyrethroid tolerant); assay: Toxicity assay on treated netting (Example 7), Thai strain; type: in vivo
Experimental: as §1, §2

[4] = system: female Aedes aegypti (Thailand strain) mosquitoes; assay: Contact irritancy and spatial repellency screening (Example 4); type: in vivo; details: Dosage 25 nmol/cm^2; mapped with 3000 other compounds
Experimental: (§3) Four compounds of formula (I) were tested for contact irritancy (i.e., movement away from the source after physical contact) at low doses on female Aedes aegypti (Thailand strain) mosquitoes. The contact irritant response was determined by use of the contact irritant assay disclosed by Grieco et al. in “A New Classification System for the Actions of IRS Chemicals Traditionally Used for Malaria Control,” Plos One, Issue 8 (2007) (available at www.plosone.org). The assay used was a cylindrical assembly that included a metal treatment end to which 10 mosquitoes were introduced and a clear receiving chamber. The treatment end included a netting strip (nylon organdy) that was treated with the insecticide of interest at the relevant dose. A butterfly valve separated the treatment end from the remainder of the assembly.
(§4) The four compounds of formula I described in Example 2 were tested for spatial repellency (directed movement away from the chemical source without the insect making physical contact with the treated surface) at low doses on female Aedes aegypti (Thailand strain) mosquitoes. The spatial repellency response was determined by use of the spatial repellency assay disclosed by Grieco et al. in “A New Classification System for the Actions of IRS Chemicals Traditionally Used for Malaria Control” in Plos One, Issue 8 (2007) (available at www.plosone.org) which is incorporated herein by reference for all relevant and consistent purposes. The assay used was a cylindrical assembly that included a treatment chamber at one end and a control chamber at the other end. The treatment chamber included a netting strip (nylon organdy) that was treated with the insecticide of interest at the relevant dose. The treatment chamber and control chamber were connected by a clear cylinder and were separated from the clear cylinder by butterfly valves. Twenty (20) mosquitoes were introduced into the clear central chamber and the butterfly valves were opened after 30 seconds. After 10 minutes, the valves were closed and the number of mosquitoes in each chamber was counted.
Dosage was 25 nmol/cm^2. Several known compounds were also mapped for comparison—alphacypermethrin, cypermethrin, propoxur, bendiocarb, permethrin, SS220, DDT, deet and chlorpyrifos.

[5] = system: Ae. Aegypti, Isla Mujer strain (metabolically pyrethroid resistant); assay: Contact irritancy on metabolically resistant mosquitoes (Example 5); type: in vivo
Experimental: as §3
(§5) Each composition was applied to the netting strip at a varied dose via a 1.5 ml acetone solution. Four (4) treatment concentrations were used—0.0025 nmol/cm^2, 0.025 nmol/cm^2, 0.25 nmol/cm^2 and 2.5 nmol/cm^2. Netting was allowed to dry for 15 minutes prior to placement in the cylinder. Control assays were performed with netting treated with acetone only.
(§6) For each run, 10 mosquitoes were transferred into the treatment end of the assembly and, after 30 seconds, the butterfly valve was opened. The valve was closed after 10 minutes and the number of mosquitoes in the clear end (i.e., the number of escaped mosquitoes) was tested.
(§7) The contact irritancy protocol of Example 2 was used to determine contact irritancy against mosquitoes (Ae. Aegypti) that had acquired metabolic resistance against pyrethroids. Alphacypermethrin and transfluthrin were also tested. Three mosquito strains were tested—Houston which is pyrethroid susceptible, That which is pyrethroid tolerant and Isla Mujer which is metabolically pyrethroid resistant.

[6] = system: female Aedes aegypti (Thailand strain) mosquitoes; assay: Spatial repellency assay on mosquitoes (Example 3); type: in vivo; details: netting treated at 0.0025-2.5 nmol/cm^2
Experimental: as §4
The compositions were applied to the net strips by the same methods and at the same concentrations as described in Example 2 above. […]

[7] = system: female Aedes aegypti (Thailand strain) mosquitoes; assay: Contact irritancy assay on mosquitoes (Example 2); type: in vivo; details: netting treated at 0.0025-2.5 nmol/cm^2; 10 minutes
Experimental: as §3, §5, §6

[8] = system: Ae. Aegypti strains Houston, That and Isla Mujer; assay: Spatial repellency on metabolically resistant mosquitoes (Example 6); type: in vivo
Experimental: as §4
as §7, with “spatial repellency” for “contact irritancy”, “3” for “2”, “DDT” for “Alphacypermethrin”

[9] = system: Ae. Aegypti, That strain (pyrethroid tolerant); assay: Contact irritancy on pyrethroid tolerant mosquitoes (Example 5); type: in vivo
Experimental: as §3, §5, §6, §7

[10] = system: Ae. aegypti Houston strain (pyrethroid susceptible); assay: Toxicity assay on treated netting (Example 7), Houston strain; type: in vivo
Experimental: as §1, §2

[11] = Dose 0.025 nm/cm^2, Time 1 hour
[12] = Dose 0.025 nm/cm^2, Time 24 hours
[13] = Dose 0.05 nm/cm^2, Time 24 hours
[14] = Dose 0.0725 nm/cm^2, Time 1 hour
[15] = Dose 0.0725 nm/cm^2, Time 24 hours
[16] = Dose 0.1 nm/cm^2, Time 24 hours
[17] = Dose 0.125 nm/cm^2, Time 1 hour
[18] = Dose 0.125 nm/cm^2, Time 24 hours
[19] = Dose 0.2 nm/cm^2, Time 24 hours
[20] = Dose 0.25 nm/cm^2, Time 24 hours
[21] = Dose 2.5 nm/cm^2, Time 24 hours

For `Clc1ccc(C(c2ccc(Cl)cc2)C(Cl)(Cl)Cl)cc1` [DDT, dichlorodiphenyltrichloroethane], the “reduction in entering populations observed with DDT” value [1] is given as 97%.
For `CC1(C)C(C=C(F)F)C1C(=O)OCc1ccc(F)c(C(F)(F)F)c1F` (stereo not shown) [Compound 1403], the “Isla mujeres (% dead (SE))” value [2, 11] was 0%, the “Isla mujeres (% dead (SE))” value [2, 12] was 1.58% and the “Isla mujeres (% dead (SE))” value ([2]; Dose 0.05 nm/cm^2, Time 1 hour) was 0%. For the same compound, the “Isla mujeres (% dead (SE))” value [2, 13] was 5.93%, the “Isla mujeres (% dead (SE))” value [2, 14] was 0% and the “Isla mujeres (% dead (SE))” value [2, 15] was 3.70%. The “Isla mujeres (% dead (SE))” value ([2]; Dose 0.1 nm/cm^2, Time 1 hour) was 0%, the “Isla mujeres (% dead (SE))” value [2, 16] was 5.00% and the “Isla mujeres (% dead (SE))” value [2, 17] was 0%. The “Isla mujeres (% dead (SE))” value [2, 18] was 6.00%, the “Isla mujeres (% dead (SE))” value ([2]; Dose 0.2 nm/cm^2, Time 1 hour) was 70% and the “Isla mujeres (% dead (SE))” value [2, 19] was 20%. The “Isla mujeres (% dead (SE))” value ([2]; Dose 0.25 nm/cm^2, Time 1 hour) was 100%, the “Isla mujeres (% dead (SE))” value [2, 20] was 100% and the “Isla mujeres (% dead (SE))” value ([2]; Dose 2.5 nm/cm^2, Time 1 hour) was 100%. For the same compound, the “Isla mujeres (% dead (SE))” value [2, 21] was 100%, the “toxicity to resistant populations compared with standard compounds” value ([2]; summary of Table 2) was “more toxic to resistant populations than permethrin, matfluthrin and transfluthrin” and the “Thai (% dead (SE))” value [3, 11] was 15%. For the same compound, the “Thai (% dead (SE))” value [3, 12] was 0%, the “Thai (% dead (SE))” value ([3]; Dose 0.25 nm/cm^2, Time 1 hour) was 100% and the “Thai (% dead (SE))” value [3, 20] was 100%. For the same compound, the “Thai (% dead (SE))” value ([3]; Dose 2.5 nm/cm^2, Time 1 hour) was 100%, the “Thai (% dead (SE))” value [3, 21] was 100% and the “contact irritancy and spatial repellency relative to screened compounds (FIG. 3)” value [4] was “superior contact irritancy and spatial repellency relative to most screened compounds”. The “contact irritancy, resistant strain (FIG. 4)” value [5] was “effective in resistant strains”, the “spatial repellency, dose compared with DDT (FIG. 2)” value [6] was “showed repellency at a lower dose than DDT” and the “contact irritancy (FIG. 1)” value [7] was “showed contact irritancy at relatively low doses”. The “spatial repellency, all strains (FIG. 5)” value [8] was “spatial repellants for all strains”, the “contact irritancy, tolerant strain (FIG. 4)” value [9] was “contact irritants for tolerant strains” and the “Houston (% dead (SE))” value [10, 11] was 11.76%. The “Houston (% dead (SE))” value [10, 12] was 15.57%, the “Houston (% dead (SE))” value ([10]; Dose 0.05 nm/cm^2, Time 1 hour) was 51.3% and the “Houston (% dead (SE))” value [10, 13] was 41.18%. For the same compound, the “Houston (% dead (SE))” value [10, 14] was 100%, the “Houston (% dead (SE))” value [10, 15] was 100% and the “Houston (% dead (SE))” value ([10]; Dose 0.1 nm/cm^2, Time 1 hour) was 100%. For the same compound, the “Houston (% dead (SE))” value [10, 16] was 100%, the “Houston (% dead (SE))” value [10, 17] was 100% and the “Houston (% dead (SE))” value [10, 18] was 100%. The “Houston (% dead (SE))” value ([10]; Dose 0.2 nm/cm^2, Time 1 hour) was 100%, the “Houston (% dead (SE))” value [10, 19] was 100% and the “Houston (% dead (SE))” value ([10]; Dose 0.25 nm/cm^2, Time 1 hour) was 100%. For the same compound, the “Houston (% dead (SE))” value [10, 20] was 100%, the “Houston (% dead (SE))” value ([10]; Dose 2.5 nm/cm^2, Time 1 hour) was 100% and the “Houston (% dead (SE))” value [10, 21] was 100%.
